Results taken from patent US11505543B2, “4-oxo-3,4-dihydroquinazoline compounds as inhibitors of human immunodeficiency virus replication” (VIIV HEALTHCARE UK (NO.5) LIMITED, priority 2018, dated 2022).

Columns and labels:
[1] = Compound cytotoxicity, XTT-based colorimetric assay; type: cell-based; conditions: human, uninfected MT2 cells, day 4, XTT
Procedure, shortened: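 Run under the antiviral-assay protocol but without virus. Viability was read on day 4 and CC50 values were derived from the readout.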

[2] = system: recombinant NL4-3 virus (nef section replaced with Renilla luciferase gene) in MT-2 cells; test: HIV cell culture assay (antiviral activity, luciferase readout); type: cell-based; conditions: serial dilutions of compound
Procedure, shortened: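 Test compound in serial dilution was present while MT-2 cells were infected for 4–5 days with recombinant NL4-3 virus made in 293T cells. Antiviral activity was quantified as Renilla luciferase activity, read with a live-cell substrate. EC50 came from the median-effect equation.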

[3] = Renilla, NL43, MT-2 cells infected for 4-5 days with recombinant NL4-3 Renilla luciferase virus
[4] = MT-2 cells infected for 4-5 days with recombinant NL4-3 Renilla luciferase virus

Q: For `COc1cc(C)nc(-c2ccc3c(=O)n(-c4ccc(Cl)c5c(NS(C)(=O)=O)nn(C)c45)c([C@H](Cc4cc(F)cc(F)c4)NC(=O)Cn4nc(C(F)F)c5c4C(F)(F)[C@@H]4C[C@H]54)nc3c2)n1` (atropisomer, axis not shown; (aR)) [Example 131, N-((S)-1-(3-(4-chloro-1-methyl-3-(methylsulfonamido)-1H-indazol-7-yl)-7-(4-methoxy-6-methylpyrimidin-2-yl)-4-oxo-3,4-dihydroquinazolin-2-yl)-2-(3,5-difluorophenyl)ethyl)-2-((3bS,4aR)-3-(difluoromethyl)-5,5-difluoro-3b,4,4a,5-tetrahydro-1H-cyclopropa[3,4]cyclopenta[1,2-c]pyrazol-1-yl)acetamide], which CC50 at 4 day [1] is on record?
A: > 500 nM

Q: What about the EC50 [2, 3] of the same compound?
A: 0.11 nM

Q: Which CC50 at 4 day [1] does the source give for `Cn1nc(NS(C)(=O)=O)c2c(Cl)ccc(-n3c(C(Cc4cc(F)cc(F)c4)NC(=O)Cn4nc(C(F)F)c5c4C(F)(F)[C@@H]4C[C@H]54)nc4cc(-c5ccccc5F)ccc4c3=O)c21` (single isomer, unassigned) [Example 1] here?
A: > 1000 nM

Q: And the EC50 [2, 3]?
A: 209 nM

Q: Which CC50 at 4 day [1] does the source give for `Cn1nc(NS(C)(=O)=O)c2c(Cl)ccc(-n3c([C@H](Cc4cc(F)cc(F)c4)NC(=O)Cn4nc(C(F)F)c5c4C(F)(F)[C@@H]4C[C@H]54)nc4cc(-c5ccccc5F)ccc4c3=O)c21` (single isomer, unassigned) [Example 2] here?
A: > 1000 nM

Q: And the EC50 [2, 3]?
A: 0.53 nM

Q: With `Cn1nc(NS(C)(=O)=O)c2c(Cl)ccc(-n3c([C@H](Cc4cc(F)cc(F)c4)NC(=O)Cn4ccc(C5CC5)n4)nc4cc(-c5ccccc5F)ccc4c3=O)c21` (single isomer, unassigned) [Example 3] as the compound, how does the CC50 at 4 day [1] read?
A: > 1000 nM

Q: And the EC50 [2, 4]?
A: 63.1 nM

Q: With `CC(C(=O)N[C@@H](Cc1cc(F)cc(F)c1)c1nc2cc(-c3ccccc3F)ccc2c(=O)n1-c1ccc(Cl)c2c(NS(=O)(=O)C3CC3)nn(CC(F)F)c12)n1ccc(C2CC2)n1` (single isomer, unassigned) [Example 133] as the compound, how does the CC50 at 4 day [1] read?
A: > 500 nM

Q: And the EC50 [2, 4]?
A: 1.6 nM

Q: With `Cc1c(-c2ccc3c(=O)n(-c4ccc(Cl)c5c(NS(C)(=O)=O)nn(C)c45)c([C@H](Cc4cc(F)cc(F)c4)NC(=O)Cn4nc(C(F)F)c5c4C(F)(F)[C@@H]4CC54)nc3c2)cc(F)c2c1CCCO2` (stereo in doubt) [Example 53, N-((S)-1-(3-(4-chloro-1-methyl-3-(methylsulfonamido)-1H-indazol-7-yl)-7-(8-fluoro-5-methylchroman-6-yl)-4-oxo-3,4-dihydroquinazolin-2-yl)-2-(3,5-difluorophenyl)ethyl)-2-((3bS,4aR)-3-(difluoromethyl)-5,5-difluoro-3b,4,4a,5-tetrahydro-1H-cyclopropa[3,4]cyclopenta[1,2-c]pyrazol-1-yl)acetamide] as the compound, how does the CC50 at 4 day [1] read?
A: > 1000 nM

Q: And the EC50 [2, 3]?
A: 2.1 nM

Q: For `CC(C)c1ccc(-n2c([C@H](Cc3cc(F)cc(F)c3)NC(=O)Cn3nc(C(F)F)c4c3C(F)(F)[C@@H]3C[C@H]43)nc3cc(-c4nnn[nH]4)ccc3c2=O)cn1` [Example 7, 2-((3bS,4aR)-3-(difluoromethyl)-5,5-difluoro-3b,4,4a,5-tetrahydro-1H-cyclopropa[3,4]cyclopenta[1,2-c]pyrazol-1-yl)-N-((S)-2-(3,5-difluorophenyl)-1-(3-(6-isopropylpyridin-3-yl)-4-oxo-7-(1H-tetrazol-5-yl)-3,4-dihydroquinazolin-2-yl)ethyl)acetamide], which CC50 at 4 day [1] is on record?
A: > 1000 nM

Q: And the EC50 [2, 3]?
A: 4130 nM

Q: With `O=C(Cn1ccc(C2CC2)n1)N[C@@H](Cc1cc(F)cc(F)c1)c1nc2cc(-c3ccc(F)cc3F)ccc2c(=O)n1-c1ccc(S(=O)(=O)N2CCOCC2)cc1` [Example 12, (S)-2-(3-cyclopropyl-1H-pyrazol-1-yl)-N-(2-(3,5-difluorophenyl)-1-(7-(2,4-difluorophenyl)-3-(4-(morpholinosulfonyl)phenyl)-4-oxo-3,4-dihydroquinazolin-2-yl)ethyl)acetamide] as the compound, how does the CC50 at 4 day [1] read?
A: > 1000 nM

Q: And the EC50 [2, 3]?
A: 8.3 nM

Q: What does the source list for `Cc1cc(Cl)ccc1-c1ccc2c(=O)n(-c3ccc(S(=O)(=O)N4CCOCC4)cc3)c([C@H](Cc3cc(F)cc(F)c3)NC(=O)Cn3nc(C(F)F)c4c3C(F)(F)[C@@H]3C[C@H]43)nc2c1` [Example 15, N-((S)-1-(7-(4-chloro-2-methylphenyl)-3-(4-(morpholinosulfonyl)phenyl)-4-oxo-3,4-dihydroquinazolin-2-yl)-2-(3,5-difluorophenyl)ethyl)-2-((3bS,4aR)-3-(difluoromethyl)-5,5-difluoro-3b,4,4a,5-tetrahydro-1H-cyclopropa[3,4]cyclopenta[1,2-c]pyrazol-1-yl)acetamide]?
A: CC50 at 4 day [1]: > 1000 nM; EC50 [2, 3]: 43 nM

Q: Which CC50 at 4 day [1] does the source give for `O=C(Cn1ccc(C2CC2)n1)N[C@@H](Cc1cc(F)cc(F)c1)c1nc2cc(-c3cc(F)ccc3F)ccc2c(=O)n1-c1ccc(S(=O)(=O)N2CCOCC2)cc1` [Example 19, (S)-2-(3-cyclopropyl-1H-pyrazol-1-yl)-N-(2-(3,5-difluorophenyl)-1-(7-(2,5-difluorophenyl)-3-(4-(morpholinosulfonyl)phenyl)-4-oxo-3,4-dihydroquinazolin-2-yl)ethyl)acetamide] here?
A: > 1000 nM

Q: What about the EC50 [2, 3] of the same compound?
A: 8.9 nM

Q: Which CC50 at 4 day [1] does the source give for `O=C(Cn1ccc(C2CC2)n1)N[C@@H](Cc1cc(F)cc(F)c1)c1nc2cc(-c3cccnc3)ccc2c(=O)n1-c1ccc(S(=O)(=O)N2CCOCC2)cc1` [Example 20, (S)-2-(3-cyclopropyl-1H-pyrazol-1-yl)-N-(2-(3,5-difluorophenyl)-1-(3-(4-(morpholinosulfonyl)phenyl)-4-oxo-7-(pyridin-3-yl)-3,4-dihydroquinazolin-2-yl)ethyl)acetamide] here?
A: > 1000 nM

Q: What about the EC50 [2, 3] of the same compound?
A: 3.7 nM

Q: Which CC50 at 4 day [1] does the source give for `O=C(Cn1nc(C(F)F)c2c1C(F)(F)[C@@H]1C[C@H]21)N[C@@H](Cc1cc(F)cc(F)c1)c1nc2cc(-c3ccc(F)cc3F)ccc2c(=O)n1-c1ccc(S(=O)(=O)N2CCOCC2)cc1` [Example 22, 2-((3bS,4aR)-3-(difluoromethyl)-5,5-difluoro-3b,4,4a,5-tetrahydro-1H-cyclopropa[3,4]cyclopenta[1,2-c]pyrazol-1-yl)-N-((S)-2-(3,5-difluorophenyl)-1-(7-(2,4-difluorophenyl)-3-(4-(morpholinosulfonyl)phenyl)-4-oxo-3,4-dihydroquinazolin-2-yl)ethyl)acetamide] here?
A: > 1000 nM

Q: And the EC50 [2, 3]?
A: 7.9 nM

Q: For `O=C(Cn1nc(C(F)F)c2c1C(F)(F)[C@@H]1C[C@H]21)N[C@@H](Cc1cc(F)cc(F)c1)c1nc2cc(-c3cccnc3)ccc2c(=O)n1-c1ccc(S(=O)(=O)N2CCOCC2)cc1` [Example 24, 2-((3bS,4aR)-3-(difluoromethyl)-5,5-difluoro-3b,4,4a,5-tetrahydro-1H-cyclopropa[3,4]cyclopenta[1,2-c]pyrazol-1-yl)-N-((S)-2-(3,5-difluorophenyl)-1-(3-(4-(morpholinosulfonyl)phenyl)-4-oxo-7-(pyridin-3-yl)-3,4-dihydroquinazolin-2-yl)ethyl)acetamide], which CC50 at 4 day [1] is on record?
A: > 1000 nM

Q: What about the EC50 [2, 3] of the same compound?
A: 4.3 nM

Q: With `O=C(Cn1nc(C(F)F)c2c1C(F)(F)[C@H]1C[C@@H]21)N[C@@H](Cc1cc(F)cc(F)c1)c1nc2cc(-c3ncccn3)ccc2c(=O)n1-c1ccc(S(=O)(=O)N2CCOCC2)cc1` [Example 27, 2-((3bR,4aS)-3-(difluoromethyl)-5,5-difluoro-3b,4,4a,5-tetrahydro-1H-cyclopropa[3,4]cyclopenta[1,2-c]pyrazol-1-yl)-N-((S)-2-(3,5-difluorophenyl)-1-(3-(4-(morpholinosulfonyl)phenyl)-4-oxo-7-(pyrimidin-2-yl)-3,4-dihydroquinazolin-2-yl)ethyl)acetamide] as the compound, how does the CC50 at 4 day [1] read?
A: > 1000 nM

Q: What about the EC50 [2, 3] of the same compound?
A: 5.8 nM

Q: What does the source list for `O=C(Cn1nc(C(F)F)c2c1C(F)(F)[C@@H]1C[C@H]21)N[C@@H](Cc1cc(F)cc(F)c1)c1nc2cc(-c3cc(F)ccc3F)ccc2c(=O)n1-c1ccc(S(=O)(=O)N2CCOCC2)cc1` [Example 29, 2-((3bS,4aR)-3-(difluoromethyl)-5,5-difluoro-3b,4,4a,5-tetrahydro-1H-cyclopropa[3,4]cyclopenta[1,2-c]pyrazol-1-yl)-N-((S)-2-(3,5-difluorophenyl)-1-(7-(2,5-difluorophenyl)-3-(4-(morpholinosulfonyl)phenyl)-4-oxo-3,4-dihydroquinazolin-2-yl)ethyl)acetamide]?
A: CC50 at 4 day [1]: > 1000 nM; EC50 [2, 3]: 2.9 nM

Q: For `COc1ccc(-c2ccc3c(=O)n(-c4ccc(S(=O)(=O)N5CCOCC5)cc4)c([C@H](Cc4cc(F)cc(F)c4)NC(=O)Cn4ccc(C5CC5)n4)nc3c2)cn1` [Example 32, (S)-2-(3-cyclopropyl-1H-pyrazol-1-yl)-N-(2-(3,5-difluorophenyl)-1-(7-(6-methoxypyridin-3-yl)-3-(4-(morpholinosulfonyl)phenyl)-4-oxo-3,4-dihydroquinazolin-2-yl)ethyl)acetamide], which CC50 at 4 day [1] is on record?
A: > 1000 nM

Q: And the EC50 [2, 3]?
A: 5.8 nM

Q: Which CC50 at 4 day [1] does the source give for `O=C(Cn1ccc(C2CC2)n1)N[C@@H](Cc1cc(F)cc(F)c1)c1nc2cc(-c3c(F)cccc3F)ccc2c(=O)n1-c1ccc(S(=O)(=O)N2CCOCC2)cc1` [Example 37, (S)-2-(3-cyclopropyl-1H-pyrazol-1-yl)-N-(2-(3,5-difluorophenyl)-1-(7-(2,6-difluorophenyl)-3-(4-(morpholinosulfonyl)phenyl)-4-oxo-3,4-dihydroquinazolin-2-yl)ethyl)acetamide] here?
A: > 1000 nM

Q: What about the EC50 [2, 3] of the same compound?
A: 8.8 nM

Q: For `O=C(Cn1ccc(C2CC2)n1)N[C@@H](Cc1cc(F)cc(F)c1)c1nc2cc(-c3ccccc3Oc3ccccc3)ccc2c(=O)n1-c1ccc(S(=O)(=O)N2CCOCC2)cc1` [Example 42, (S)-2-(3-cyclopropyl-1H-pyrazol-1-yl)-N-(2-(3,5-difluorophenyl)-1-(3-(4-(morpholinosulfonyl)phenyl)-4-oxo-7-(2-phenoxyphenyl)-3,4-dihydroquinazolin-2-yl)ethyl)acetamide], which CC50 at 4 day [1] is on record?
A: > 1000 nM

Q: And the EC50 [2, 3]?
A: 54 nM
